Values quoted from earlier work in PubChem BioAssay AID1259409 (Chemical Carcinogenesis Research Information System (CCRIS), 2018).

Test system: rodent chemically induced tumor inhibition, incidence and multiplicity
Assay: CCRIS tumor inhibitor studies
Conditions: Route [Inhibitor]: ORAL, Promoter: NONE USED

**Q.** With `CC1=C(/C=C/C(C)=C/C=C/C(C)=C/C(=O)Nc2ccc(O)cc2)C(C)(C)CCC1` as the molecule, how does the “tumour outcome (control, treated, inhibition, significance)” value (Carcinogen: METHYLNITROSOUREA, 684-93-5, Dose [Inhibitor]: 0, 782 MG/KG DIET IN VEHICLE 2 MO PRIOR TO CARCINOGEN DOSE AND CONTINUED UNTIL CARCINOGEN ADMINISTRATION (STUDY DURATION, Species: RAT, Strain/Sex: CD-1/FEMALE, Target Tissue: Type of Lesion: MAMMARY GLAND: BENIGN TUMOR, Dose [Carcinogen]: 50 MG/KG BW ONCE) read?
**A.** 10%, 14%, -40%, not calculated

**Q.** What about the “tumour outcome (control, treated, inhibition, significance)” value (Carcinogen: N-BUTYL-N(4-HYDROXYBUTYL)NITROSAMINE, 3817-11-6, Dose [Inhibitor]: 0, 156 MG/KG DIET FOR 6 MO BEGINNING 1 WK PRIOR TO CARCINOGEN TREATMENT (STUDY DURATION: 6 MO), Species: MOUSE, Strain/Sex: BDF/MALE, Target Tissue: Type of Lesion: URINARY BLADDER: CARCINOMA, Dose [Carcinogen]: 7.5 MG IN 0.1 ML ETHANOL:WATER (20:80) 1/WK FOR 8 WK) of the same molecule?
**A.** 27/70 (39%), 31/67 (46%), -18%, not calculated

**Q.** What about the “tumour outcome (control, treated, inhibition, significance)” value (Carcinogen: N-BUTYL-N-(4-HYDROXYBUTYL)NITROSAMINE, 3817-11-6, Dose [Inhibitor]: 0, 156 MG/KG DIET BEGINNING 1 WK PRIOR TO CARCINOGEN TREATMENT AND CONTINUING FOR DURATION OF STUDY (STUDY DURATION: 180, Species: MOUSE, Strain/Sex: BDF/MALE, Target Tissue: Type of Lesion: BLADDER: CARCINOMA, Dose [Carcinogen]: 7.5 MG IN 0.1 ML OF ETHANOL:WATER (20:80) 1/WK FOR 8 WK) of the same molecule?
**A.** 25/63 (40%), 27/70 (39%), 3%, not significant

**Q.** What about the “tumour outcome (control, treated, inhibition, significance)” value (Carcinogen: N-BUTYL-N-(4-HYDROXYBUTYL)NITROSAMINE, 3817-11-6, Dose [Inhibitor]: 0, 313 MG/KG DIET BEGINNING 1 WK PRIOR TO CARCINOGEN TREATMENT AND CONTINUING FOR DURATION OF STUDY (STUDY DURATION: 180, Species: MOUSE, Strain/Sex: BDF/MALE, Target Tissue: Type of Lesion: BLADDER: CARCINOMA, Dose [Carcinogen]: 7.5 MG IN 0.1 ML OF ETHANOL:WATER (20:80) 1/WK FOR 8 WK) of the same molecule?
**A.** 28/65 (43%), 20/67 (30%), 30%, not significant

**Q.** What about the “tumour outcome (control, treated, inhibition, significance)” value (Carcinogen: N-BUTYL-N-(4-HYDROXYBUTYL)NITROSAMINE, 3817-11-6, Dose [Inhibitor]: 0, 313 MG/KG DIET FOR 6 MO BEGINNING 1 WK PRIOR TO CARCINOGEN TREATMENT (STUDY DURATION: 6 MO), Species: MOUSE, Strain/Sex: BDF/MALE, Target Tissue: Type of Lesion: URINARY BLADDER: CARCINOMA, Dose [Carcinogen]: 7.5 MG IN 0.1 ML ETHANOL:WATER (20:80) 1/WK FOR 8 WK) of the same molecule?
**A.** 30/73 (41%), 28/67 (42%), -2%, not calculated

**Q.** And the “tumour outcome (control, treated, inhibition, significance)” value (Carcinogen: N-BUTYL-N-(4-HYDROXYBUTYL)NITROSAMINE, 3817-11-6, Dose [Inhibitor]: 1.5 MMOL/KG DIET DAILY FOR 153 D STARTING ONE WK AFTER THE FINAL CARCINOGEN DOSE (STUDY DURATION: 210 D), Species: MOUSE, Strain/Sex: BDF/MALE, Target Tissue: Type of Lesion: URINARY BLADDER: TRANSITIONAL CELL CARCINOMA, Dose [Carcinogen]: 7.5 MG 1/WK FOR 8 WK)?
**A.** 35/99 (35%), 21/100 (21%), 40%, p<0.05

**Q.** What about the “tumour outcome (control, treated, inhibition, significance)” value (Carcinogen: N-BUTYL-N-(4-HYDROXYBUTYL)NITROSAMINE, 3817-11-6, Dose [Inhibitor]: 1.5 MMOL/KG IN DIET FOR 153 D STARTING 1 WK AFTER LAST CARCINOGEN DOSE (STUDY DURATION: 210 D), Species: MOUSE, Strain/Sex: DBF1/MALE, Target Tissue: Type of Lesion: URINARY BLADDER: TRANSITIONAL CELL CARCINOMA, Dose [Carcinogen]: 7.5 MG 1/WK FOR 8 WK) of the same molecule?
**A.** 35/99 (35%), 21/100 (21%), 40%, p<0.05

**Q.** And the “tumour outcome (control, treated, inhibition, significance)” value (Carcinogen: N-BUTYL-N-(4-HYDROXYBUTYL)NITROSAMINE, 3817-11-6, Dose [Inhibitor]: 391 MG/KG DIET STARTING 1 WK AFTER FINAL CARCINOGEN DOSE AND CONTINUING THROUGH END OF STUDY (STUDY DURATION: 205 D), Species: MOUSE, Strain/Sex: DBF1/MALE, Target Tissue: Type of Lesion: URINARY BLADDER: TRANSITIONAL CELL CARCINOMA, Dose [Carcinogen]: 7.5 MG 1/WK FOR 8 WK)?
**A.** 19/50 (38%), 9/49 (18%), 53%, p<0.05

**Q.** What about the “tumour outcome (control, treated, inhibition, significance)” value (Carcinogen: N-BUTYL-N-(4-HYDROXYBUTYL)NITROSAMINE, 3817-11-6, Dose [Inhibitor]: 391 MG/KG IN DIET BEGINNING 1 WK AFTER FINAL CARCINOGEN DOSE AND CONTINUING THROUGH END OF STUDY (STUDY DURATION: 205 D), Species: MOUSE, Strain/Sex: DBF1/MALE, Target Tissue: Type of Lesion: URINARY BLADDER: TRANSITIONAL CELL CARCINOMA, Dose [Carcinogen]: 7.5 MG 1/WK FOR 8 WK) of the same molecule?
**A.** 19/50 (38%), 9/49 (18%), 53%, p<0.05

**Q.** What about the “tumour outcome (control, treated, inhibition, significance)” value (Carcinogen: N-ETHYL-N-NITROSOUREA, 759-73-9, Dose [Inhibitor]: 0, 98 MG/KG DIET FOR DURATION OF STUDY BEGINNING POST CARCINOGEN DOSE (STUDY DURATION: 35 WK), Species: MOUSE, Strain/Sex: PIM/MALE, Target Tissue: Type of Lesion: LYMPHATIC SYSTEM: LYMPHOMA, Dose [Carcinogen]: 50 MG/KG BW ONCE) of the same molecule?
**A.** 21/40 (53%), 13/30 (43%), 19%, not significant

**Q.** And the “tumour outcome (control, treated, inhibition, significance)” value (Carcinogen: N-ETHYL-N-NITROSOUREA, 759-73-9, Dose [Inhibitor]: 0, 196 MG/KG DIET FOR DURATION OF STUDY BEGINNING POST CARCINOGEN DOSE (STUDY DURATION: 35 WK), Species: MOUSE, Strain/Sex: PIM/MALE, Target Tissue: Type of Lesion: LYMPHATIC SYSTEM: LYMPHOMA, Dose [Carcinogen]: 50 MG/KG BW ONCE)?
**A.** 21/40 (53%), 15/29 (52%), 2%, not significant

**Q.** And the “tumour outcome (control, treated, inhibition, significance)” value (Carcinogen: N-ETHYL-N-NITROSOUREA, 759-73-9, Dose [Inhibitor]: 0, 391 MG/KG DIET FOR DURATION OF STUDY BEGINNING POST CARCINOGEN DOSE (STUDY DURATION: 35 WK), Species: MOUSE, Strain/Sex: PIM/MALE, Target Tissue: Type of Lesion: LYMPHATIC SYSTEM: LYMPHOMA, Dose [Carcinogen]: 50 MG/KG BW ONCE)?
**A.** 21/40 (53%), 16/40 (40%), 26%, not significant
